# According to PubChem BioAssay (NCI):
# Values joined by “and” are separate entries in the source; they are usually repeats but may differ in a detail not shown here. Equal entries are not always repeated.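 These data come from cells grown in 96-well plates and exposed to compound for 48 hours at five concentrations. GI50 is the concentration that inhibits growth by half. TGI marks complete inhibition of growth.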
# Tests used:
# Assay in all cases: DTP human tumour cell line panel, 48 h
# [1] = test system: CAKI-1 renal
# [2] = test system: CCRF-CEM leukemia
# [3] = test system: DLD-1 colon
# [4] = test system: DMS 114 small cell lung
# [5] = test system: DMS 273 small cell lung
# [6] = test system: KM12 colon
# [7] = test system: OVCAR-4 ovarian
# [8] = test system: HS 578T breast
# [9] = test system: PC-3 prostate
# [10] = test system: T-47D breast
SMILES,TGI [1] [µM],TGI [2] [µM],TGI [3] [µM],TGI [4] [µM],TGI [5] [µM],TGI [6] [µM],TGI [7] [µM],TGI [8] [µM],TGI [9] [µM],TGI [10],GI50 [1],GI50 [2],GI50 [3] [µM],GI50 [4] [µM],GI50 [5] [µM],GI50 [6],GI50 [9],GI50 [10],GI50 [8],GI50 [7]
COc1ccc(/C=C2/C[N+](C)(C)C/C(=C/c3ccc(OC)cc3)C2=O)cc1,> 100,> 96.1,> 100,> 69.3,51.3,36.3,> 88.9,–,–,–,–,–,–,–,–,–,–,–,–,–
Cc1cc(C)nc(Nc2nc3ccc([N+](=O)[O-])cc3[nH]2)n1,> 100,> 100,> 100,> 100,> 100,> 100,> 100,–,–,–,–,–,–,–,–,–,–,–,–,–
COc1ccc2ccc([Se]c3ccc4ccc(OC)cc4c3)cc2c1,> 100,> 100,> 100,> 100,> 100,> 100,46.6,–,–,–,–,–,–,–,–,–,–,–,–,–
O=S1(=O)C[C@@H](O)[C@H](O)CS1,> 100,–,> 100,> 100,> 100,> 100,> 100,–,–,–,–,–,–,–,–,–,–,–,–,–
CC(=O)OCC1OC(n2c(=O)n(-c3ccccc3)c(=O)c3ccccc32)C(OC(C)=O)C(OC(C)=O)C1OC(C)=O (stereo unspecified),> 100,> 100,> 100,> 100,> 100,> 100,> 100,–,–,–,–,–,–,–,–,–,–,–,–,–
CCOC(=O)CC1=CSC2=NCCN12,> 100,> 100,> 100,> 100,> 100,> 100,> 100,–,–,–,–,–,–,–,–,–,–,–,–,–
O=C(O)C12C3CCCC1C2CC3 (stereo unspecified),> 100,> 100,> 100,> 100,–,> 100,–,–,–,–,–,–,–,–,–,–,–,–,–,–
CCOC(=O)C(=O)Nc1c(N(CC)CC)n2ccccc2nc1=O,> 100,> 100,> 100,> 100,> 100,> 100,–,–,–,–,–,–,–,–,–,–,–,–,–,–
CN(c1ccccc1)C(c1ccccc1)C(O)c1ccccc1 (stereo unspecified),47.7,63.3,47.5,47.5,34,34.4,34.5,–,–,–,–,–,–,–,–,–,–,–,–,–
C[C@]12CCC(=O)C(O)=C1CC[C@@H]1[C@@H]2CC[C@]2(C)C(=O)CC[C@@H]12,> 100,> 100,> 100,> 100,–,> 100,> 100,> 100,> 100,> 100 µM,–,–,–,–,–,–,–,–,–,–
c1ccc(N=C2c3ccccc3C3=NCCCN32)cc1,> 100,> 100,> 100,> 100,> 100,> 100,> 100,–,–,–,–,–,–,–,–,–,–,–,–,–
O=C1C(=O)N(c2ccc(Cl)c(Cl)c2)C(=O)C(=O)C1c1nc2ccccc2o1,> 100,–,> 100,–,> 100,> 100,> 100,–,–,–,–,–,–,–,–,–,–,–,–,–
CC(=O)/C=C/c1ccc(C2CC(C)=Nc3c(ccc4c3C(=O)c3ccccc3C4=O)N2)cc1 (stereo unspecified),> 83.5,> 100,> 100,> 100,> 100,> 23.6,> 100,–,–,–,–,–,–,–,–,–,–,–,–,–
CCOC(=O)c1ccc(N2C(=O)/C(=C\OC)c3ccccc3C2=O)cc1,> 100,–,–,> 100,> 100,> 100,> 100,–,–,–,–,–,–,–,–,–,–,–,–,–
CC1(C)OCC(CO)(Nc2nc(N3CC3)nc(N3CC3)n2)CO1,13.8,> 83.4,> 93,27.2,25.8,43.3,41.9,42.6,> 100,45 µM,–,–,–,–,–,–,–,–,–,–
ON=C1CCC(c2ccccc2)CC1 (stereo unspecified),> 100,> 100,> 100,> 100,> 100,> 100,> 100,–,–,–,–,–,–,–,–,–,–,–,–,–
CC(C(=O)Oc1ccc2ccccc2c1-c1c(O)ccc2ccccc12)c1ccccc1 (stereo unspecified),24,64.4,–,29.6,–,26.1,23.5,–,–,–,–,–,–,–,–,–,–,–,–,–
CCOC(CN=c1nc(N(C)C)ss1)OCC,41.3,4.33,> 50.8,32.9,> 67.9,38.9,33.1,> 82.5,32,> 63.7 µM,–,–,–,–,–,–,–,–,–,–
CC(=O)Nc1ccc(C2[C@H]3C(=O)N(c4ccc(Cc5ccc(N6C(=O)[C@@H]7ON(c8ccccc8)C(c8ccc(NC(C)=O)cc8)[C@@H]7C6=O)cc5)cc4)C(=O)[C@H]3ON2c2ccccc2)cc1 (stereo partly specified),> 100,> 100,> 100,> 100,> 100,> 100,> 100,–,–,–,–,–,–,–,–,–,–,–,–,–
CCOC(=O)C1C(=O)c2ccccc2CN1Cc1ccccc1 (stereo unspecified),> 100,> 100,> 100,> 100,> 100,> 100,> 100,–,–,–,–,–,–,–,–,–,–,–,–,–
CC1=Cc2cc3[n-]c(cc4nc(cc5[n-]c(cc1n2)cc5C)C(C)=C4CCC(=O)O)c(CCC(=O)O)c3C.[Pd+2],48.6,13.7,35.8,11.2,32.7,53.3,> 46.8,–,> 100,> 100 µM,27 µM,5370 nM,14.5,3.18,12,27 µM,> 100 µM,> 100 µM,–,–

SMILES,TGI [1] [µM],TGI [2] [µM],TGI [3] [µM],TGI [4] [µM],TGI [5] [µM],TGI [6] [µM],TGI [7] [µM],TGI [8] [µM],TGI [9] [µM],TGI [10],GI50 [1],GI50 [2],GI50 [3] [µM],GI50 [4] [µM],GI50 [5] [µM],GI50 [6],GI50 [9],GI50 [10],GI50 [8],GI50 [7]
O=c1cc2ccccc2nn1-c1ccccc1Cl,> 100,> 100,> 100,> 100,> 100,> 100,> 100,–,–,–,–,–,–,–,–,–,–,–,–,–
O=C(O)c1cc2c(cn1)[nH]c1ccccc12,> 100,> 100,> 100,> 100,> 100,> 100,> 100,–,–,–,–,–,–,–,–,–,–,–,–,–
COC(=O)C1=C(O)C(O)=C(C(=O)OC)C1,> 100,> 100,> 100,> 100,> 100,> 100,> 100,–,–,–,–,–,–,–,–,–,–,–,–,–
Cc1c2cc[nH]c(=O)c2cc2c(=O)c3cnccc3[nH]c12,> 100,> 100,> 100,> 100,> 100,> 100,> 100,–,–,–,–,–,–,–,–,–,–,–,–,–
O=C(c1ccccc1)c1c(C(=O)c2ccccc2)c(-c2ccccc2)c2c(-c3ccccc3)sc(-c3ccccc3)c2c1-c1ccccc1,> 100,> 100,> 100,> 100,> 100,> 100,> 100,–,–,–,–,–,–,–,–,–,–,–,–,–
CC1NOC(=O)C1N=Nc1ccccc1Cl (stereo unspecified),> 100,> 100,> 100,> 100,–,> 100,> 100,–,–,–,–,–,–,–,–,–,–,–,–,–
O=C1OC2(c3ccccc3Oc3ccccc32)c2ccccc21,> 100,> 100,> 100,> 100,> 100,> 100,> 100,–,–,–,–,–,–,–,–,–,–,–,–,–
N=C(N)CCCCCCCCC(=N)N,> 100,> 100,–,–,–,> 100,> 100,> 100,> 100,> 100 µM,7.37 µM,44600 nM,–,–,–,21.1 µM,37 µM,25 µM,29.2 µM,44.4 µM
COc1ccc(-c2cn[nH]c2-c2cc(OC)c(OC)c(OC)c2)cc1N,> 100,> 100,–,–,–,> 100,> 100,> 100,> 100,77.4 µM and > 100 µM,< 0.01 µM and 0.0324 µM,< 10 nM and 34.7 nM,–,–,–,< 0.01 µM and 0.026 µM,< 0.01 µM and 0.0339 µM,17.1 µM and 25 µM,< 0.01 µM and 0.0233 µM,0.013 µM and 0.0877 µM
CCOC(=O)C(C)c1cc(C2(C)OCCO2)c(C)o1 (stereo unspecified),–,> 100,> 100,> 100,> 100,> 100,> 100,–,–,–,–,–,–,–,–,–,–,–,–,–
COC(=O)c1ccc(N=NN(C)CO)cc1,–,> 100,> 100,> 100,> 100,> 100,> 100,–,–,–,–,–,–,–,–,–,–,–,–,–
N.N.NC(CS)C(=O)[O-].NC(CS)C(=O)[O-].[Pt+4] (stereo unspecified),–,> 50,> 50,–,> 50,> 50,> 50,–,–,–,–,> 50000 nM,> 50,–,> 50,> 50 µM,–,–,–,> 50 µM
Cc1cc2c(F)c(Oc3ncnn4cc(OC[C@@H](C)OC(=O)[C@H](C)N)c(C)c34)ccc2[nH]1,21.5,23.1,–,–,–,20.5,23.8,44.2,23.9,31.7 µM,7.21 µM,5960 nM,–,–,–,7.68 µM,5.28 µM,13.4 µM,9.36 µM,11.3 µM
C=C(CN1CCc2ccccc2C1)c1ccc(C(=O)Nc2ccc(N)cc2)cc1,> 100,> 100,–,–,–,48.4,> 100,> 100,48,41.7 µM,19.6 µM,454 nM,–,–,–,20.4 µM,3.08 µM,11.1 µM,29.8 µM,40.7 µM
C[C@]12CC[C@@H]3c4ccc(O)cc4CC[C@H]3[C@@H]1CC[C@@H]2NS(=O)(=O)Cc1ccc(Cl)cc1,11.2,> 100,–,–,–,4.39,13.6,7.46,15,8.11 µM,3.06 µM,2630 nM,–,–,–,2.05 µM,2.64 µM,2.85 µM,2.4 µM,2.69 µM
COC(=O)c1nc(NC#N)[nH]c(=O)c1C,> 100,> 100,> 100,> 100,> 100,> 100,> 100,–,–,–,–,–,–,–,–,–,–,–,–,–
CS(=O)c1ccc(COP(N)(=O)N(CCCl)CCCl)cc1 (stereo unspecified),> 100,> 100,> 100,> 100,> 100,> 100,> 100,–,–,–,–,–,–,–,–,–,–,–,–,–
Cc1ccc2c(=O)c3cccc(CC(=O)O)c3oc2c1C,> 100,> 100,–,–,–,> 100,> 100,> 100,> 100,> 100 µM,> 100 µM,> 100000 nM,–,–,–,> 100 µM,> 100 µM,> 100 µM,> 100 µM,> 100 µM
CN(C)c1ccc2c3c(c(=O)oc2c1)CCC3,> 100,> 100,–,–,–,> 100,> 100,> 100,> 100,> 100 µM,–,–,–,–,–,–,–,–,–,–
Nc1c(-c2nc3ccccc3[nH]2)sc(=S)n1-c1ccccc1,> 100,81.2,> 100,> 100,> 100,> 100,> 100,–,–,–,–,–,–,–,–,–,–,–,–,–
S=C(N/N=C/c1ccccn1)Nc1ccccn1,> 100,17.5,–,–,–,> 100,62.2,> 100,> 100,90.7 µM,1.31 µM,358 nM,–,–,–,2.87 µM,1.46 µM,1.93 µM,4.8 µM,0.477 µM
